These results are taken from patent publication US20250346871A1, “PRENYLTRANSFERASES AND METHODS OF MAKING AND USE THEREOF” (priority 2020, published 2025).

As usually defined, the Km is the substrate concentration at which the rate is half of its maximum.

Experiment [1] concerns APT73 (SEQ ID NO: 4) variant APT73.52 (S205R, S223A, K225H, A260G, Y276E, G282R, A283C, S284L; residues 285 onward removed from the C-terminus), SEQ ID NO: 69. The experiment in a line: Kinetic characterization of purified enzyme with OA and GPP as substrates. It counts as biochemical. The conditions noted are these: APT73.52, purified enzyme. The protocol: (§1) In order to compare the enzyme's activities more accurately, larger cultures of the best hits and controls from the first screen were grown and the enzymes were purified according to the following protocol. Glycerol stocks of each recombinant strain were used to inoculate 2 mL of LB with 50 μg/mL kanamycin. […]. The cultures were grown at 37° C. with 250 rpm shaking until an OD600 of approximately 0.8-1. At this point, the cultures were transferred to a shaker at room temperature for 30 min, after which they were induced with 0.25 mM IPTG. After 16 h at 150 rpm shaking, the cells were pelleted by centrifugation
(§2) Cell pellets were resuspended in 10 mL lysis buffer (B-PER with 5 mM MgCl2, 100 μg/mL lysozyme, and 2 μL/mL DNaseI (TURBO DNase ThermoFisher)). After incubation at room temperature for 10 min, the cell debris were removed by centrifugation at 4750 rpm for 10 min at 4° C. Lysates were loaded in pre-equilibrated cobalt spin columns (ThermoFisher, HisPur Cobalt spin column, 1 mL) and tagged proteins were purified according to manufacturer's protocol. The eluted proteins were exchanged into the final buffer (TrisHCl 25 mM, 5 mM MgCl2, 150 mM NaCl 10% v/v glycerol) using Amicon Ultra 15 centrifugal filters (10 kDa MWCO). Proteins can be stored at −20° C. for at least a week.
(§3) Selected mutants from the previous screenings were cloned in E. coli vectors and were purified as described in Example 3.

For experiment [2], the system named is APT73 (SEQ ID NO: 4) variant APT73.47 (A156I, S205R, S223A, K225H, A260G, Y276L, G282R, A283C, S284L; residues 285 onward removed from the C-terminus), SEQ ID …. The experiment is described as above. It counts as biochemical. Conditions: APT73.47, purified enzyme. The protocol: as §1, §2, §3
Experiment [3] relates to APT73 (SEQ ID NO: 4) variant APT73.13 (S205R, G282R, A283C, S284L; residues 285 onward removed from the C-terminus), SEQ ID NO: 36. The experiment is described as above. The conditions noted are these: APT73.13, purified enzyme. In kind it is biochemical. Here is the method: as §1, §2, §3
The test system of experiment [4] is APT73 (SEQ ID NO: 4) variant APT73.30 (S205R, S223A, K225H, A260G, Y276L, G282R, A283C, S284L; residues 285 onward removed from the C-terminus), SEQ ID NO: 56. Described as above. It counts as biochemical. The conditions noted are these: APT73.30, purified enzyme. Here is the method:
as §1, §2, §3

Experiment [5] concerns APT89, aromatic prenyltransferase, wild type, SEQ ID NO: 2 (expressed with His tag: SEQ ID NO: 9, 81). Described as above. In kind it is biochemical. The protocol:
as §1, §2, §3

Experiment [6] concerns NphB, aromatic prenyltransferase from Streptomyces sp. (strain CL190), wild type, Uniprot ID: Q4R2T2, SEQ ID NO: 20. The conditions noted are these: OA and GPP as substrates, from literature (Valliere et al. Nature Commun. 2019, 10, 565); cited from earlier work.

With `CCCCCc1cc(O)c(C/C=C(\C)CCC=C(C)C)c(O)c1C(=O)O` [CBGA, cannabigerolic acid], the “Kcat (CBGA)” value in experiment [1] was 0.08 s⁻¹; in experiment [2], 0.175 s⁻¹; in experiment [3], 0.049 s⁻¹; in experiment [4], 0.113 s⁻¹; in experiment [5] it was 0.001 s⁻¹.
Consider `CCCCCc1cc(O)cc(O)c1C(=O)O` [OA, olivetolic acid], for which the Km in experiment [6] was 640 µM; in experiment [1] it was 101 ± 14 µM; in experiment [2], 205 ± 165 µM; in experiment [3], 1100 ± 93 µM; in experiment [4], 501 ± 88 µM; in experiment [5], 33 ± 4 µM.
